# Reference: ChEMBL document CHEMBL1153969, “N-Hydroxy-(4-oxime)-cinnamide: a versatile scaffold for the synthesis of novel histone deacetylase [correction of deacetilase] (HDAC) inhibitors” (Bioorg Med Chem Lett, 2009)
# Legend:
# NB-4 = assay: Cytotoxicity against human NB4 cells after 48 hrs by SRB assay; assay type: functional, cell-based; conditions: NB-4, 48 h
# HCT-116 = assay: Cytotoxicity against human HCT116 cells after 48 hrs by SRB assay; assay type: functional, cell-based; conditions: HCT-116, 48 h
# NCI-H460 = assay: Cytotoxicity against human NCI-H460 cells after 48 hrs by SRB assay; assay type: functional, cell-based; conditions: NCI-H460, 48 h
# [1] = target: T1, Polyamine deacetylase HDAC10 (Homo sapiens, UniProt Q969S8); assay: Inhibition of human HDAC10
# T1 sequence (Q969S8 whole entry): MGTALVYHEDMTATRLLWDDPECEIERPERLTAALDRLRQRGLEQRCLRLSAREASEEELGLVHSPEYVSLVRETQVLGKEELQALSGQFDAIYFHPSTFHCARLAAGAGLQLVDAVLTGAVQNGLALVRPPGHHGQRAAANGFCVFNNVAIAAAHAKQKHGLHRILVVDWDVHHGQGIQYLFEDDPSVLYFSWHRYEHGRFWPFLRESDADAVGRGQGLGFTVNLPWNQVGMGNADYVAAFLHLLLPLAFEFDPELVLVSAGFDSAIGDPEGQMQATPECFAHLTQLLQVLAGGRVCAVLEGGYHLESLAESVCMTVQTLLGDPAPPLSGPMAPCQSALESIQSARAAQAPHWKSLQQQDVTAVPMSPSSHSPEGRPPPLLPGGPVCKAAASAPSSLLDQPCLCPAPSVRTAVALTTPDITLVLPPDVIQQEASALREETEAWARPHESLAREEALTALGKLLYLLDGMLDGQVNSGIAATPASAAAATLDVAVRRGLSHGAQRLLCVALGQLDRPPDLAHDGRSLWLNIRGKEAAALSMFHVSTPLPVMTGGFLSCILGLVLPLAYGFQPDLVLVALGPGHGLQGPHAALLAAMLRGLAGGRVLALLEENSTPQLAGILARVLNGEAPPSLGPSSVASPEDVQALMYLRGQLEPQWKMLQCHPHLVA
# Histone deacetylase 1 = Histone deacetylase 1 (Homo sapiens, UniProt Q13547)
# Chain of Histone deacetylase 1 (Q13547 whole entry): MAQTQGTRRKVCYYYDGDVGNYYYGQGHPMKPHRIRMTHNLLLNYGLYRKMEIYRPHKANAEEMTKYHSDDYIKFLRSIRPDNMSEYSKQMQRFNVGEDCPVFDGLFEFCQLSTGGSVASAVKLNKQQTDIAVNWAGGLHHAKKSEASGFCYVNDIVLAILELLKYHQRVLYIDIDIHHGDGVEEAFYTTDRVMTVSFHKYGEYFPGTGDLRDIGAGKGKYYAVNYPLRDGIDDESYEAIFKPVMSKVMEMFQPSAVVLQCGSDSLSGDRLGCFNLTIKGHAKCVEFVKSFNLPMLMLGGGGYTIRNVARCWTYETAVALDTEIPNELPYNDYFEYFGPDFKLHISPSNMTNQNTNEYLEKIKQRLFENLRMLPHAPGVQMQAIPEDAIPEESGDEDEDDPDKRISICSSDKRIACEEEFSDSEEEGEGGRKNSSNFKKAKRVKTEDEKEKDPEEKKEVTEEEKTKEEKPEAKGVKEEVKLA
# Histone deacetylase 4 = Histone deacetylase 4 (Homo sapiens, UniProt P56524)
# Chain of Histone deacetylase 4 (P56524 whole entry): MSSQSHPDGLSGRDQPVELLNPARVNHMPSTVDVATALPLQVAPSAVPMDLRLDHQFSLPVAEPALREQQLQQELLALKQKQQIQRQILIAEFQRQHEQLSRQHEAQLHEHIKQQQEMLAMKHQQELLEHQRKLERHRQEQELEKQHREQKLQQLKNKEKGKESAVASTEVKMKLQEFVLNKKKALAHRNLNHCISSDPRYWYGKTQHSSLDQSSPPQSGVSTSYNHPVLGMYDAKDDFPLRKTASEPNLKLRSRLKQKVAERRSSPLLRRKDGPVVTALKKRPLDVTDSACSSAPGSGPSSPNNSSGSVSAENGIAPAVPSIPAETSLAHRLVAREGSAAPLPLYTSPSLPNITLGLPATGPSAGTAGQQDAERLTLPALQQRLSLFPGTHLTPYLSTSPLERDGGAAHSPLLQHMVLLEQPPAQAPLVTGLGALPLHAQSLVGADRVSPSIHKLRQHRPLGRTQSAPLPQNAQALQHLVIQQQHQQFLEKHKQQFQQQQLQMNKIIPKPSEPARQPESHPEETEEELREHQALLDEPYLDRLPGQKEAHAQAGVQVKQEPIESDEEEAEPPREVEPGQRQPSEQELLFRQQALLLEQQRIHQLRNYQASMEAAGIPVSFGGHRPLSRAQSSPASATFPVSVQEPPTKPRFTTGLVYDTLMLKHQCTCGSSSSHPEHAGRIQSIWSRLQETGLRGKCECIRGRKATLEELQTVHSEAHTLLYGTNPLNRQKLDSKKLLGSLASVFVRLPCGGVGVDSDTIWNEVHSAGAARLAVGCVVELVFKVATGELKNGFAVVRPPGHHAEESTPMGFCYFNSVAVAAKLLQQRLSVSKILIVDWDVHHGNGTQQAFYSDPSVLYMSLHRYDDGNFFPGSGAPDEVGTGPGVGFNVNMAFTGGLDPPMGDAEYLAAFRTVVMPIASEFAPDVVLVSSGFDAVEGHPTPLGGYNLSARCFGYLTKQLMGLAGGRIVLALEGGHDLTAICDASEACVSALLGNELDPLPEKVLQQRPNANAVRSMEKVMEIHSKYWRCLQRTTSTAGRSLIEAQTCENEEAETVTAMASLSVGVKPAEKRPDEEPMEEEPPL
# Description: Inhibition of human HDAC4
# Histone deacetylase 5 = Histone deacetylase 5 (Homo sapiens, UniProt Q9UQL6); assay: Inhibition of human HDAC5
# Chain of Histone deacetylase 5 (Q9UQL6 whole entry): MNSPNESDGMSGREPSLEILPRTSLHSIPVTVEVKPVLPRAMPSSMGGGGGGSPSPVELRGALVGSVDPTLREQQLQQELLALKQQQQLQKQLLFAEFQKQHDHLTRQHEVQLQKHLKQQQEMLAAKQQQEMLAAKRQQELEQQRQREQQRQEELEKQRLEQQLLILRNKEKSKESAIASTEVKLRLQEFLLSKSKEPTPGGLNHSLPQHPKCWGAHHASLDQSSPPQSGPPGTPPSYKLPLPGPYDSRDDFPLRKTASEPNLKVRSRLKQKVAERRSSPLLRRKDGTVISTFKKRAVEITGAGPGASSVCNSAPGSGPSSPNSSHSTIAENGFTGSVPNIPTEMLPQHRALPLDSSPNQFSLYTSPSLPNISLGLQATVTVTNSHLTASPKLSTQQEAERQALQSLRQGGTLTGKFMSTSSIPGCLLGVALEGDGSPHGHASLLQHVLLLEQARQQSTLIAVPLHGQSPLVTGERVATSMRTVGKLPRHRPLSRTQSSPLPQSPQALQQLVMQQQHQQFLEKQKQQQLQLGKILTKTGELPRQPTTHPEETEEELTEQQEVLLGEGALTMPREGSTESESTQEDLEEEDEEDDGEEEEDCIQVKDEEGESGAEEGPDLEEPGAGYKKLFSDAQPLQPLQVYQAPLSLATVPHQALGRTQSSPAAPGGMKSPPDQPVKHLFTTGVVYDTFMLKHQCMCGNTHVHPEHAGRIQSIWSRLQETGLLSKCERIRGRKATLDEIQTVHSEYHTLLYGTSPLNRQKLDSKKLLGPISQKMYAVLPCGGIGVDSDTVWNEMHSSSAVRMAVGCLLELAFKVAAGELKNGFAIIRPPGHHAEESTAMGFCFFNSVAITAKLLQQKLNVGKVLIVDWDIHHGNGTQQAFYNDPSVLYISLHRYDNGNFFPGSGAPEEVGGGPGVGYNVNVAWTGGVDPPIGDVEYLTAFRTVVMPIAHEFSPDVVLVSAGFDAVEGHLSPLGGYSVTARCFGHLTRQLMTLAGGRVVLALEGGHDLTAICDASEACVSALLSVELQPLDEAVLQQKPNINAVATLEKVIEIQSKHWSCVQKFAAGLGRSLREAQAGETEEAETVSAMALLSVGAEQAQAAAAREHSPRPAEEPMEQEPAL
# [2] = target: T2, Protein deacetylase HDAC6 (Homo sapiens, UniProt Q9UBN7); assay: Inhibition of human HDAC6
# T2 sequence (Q9UBN7 whole entry): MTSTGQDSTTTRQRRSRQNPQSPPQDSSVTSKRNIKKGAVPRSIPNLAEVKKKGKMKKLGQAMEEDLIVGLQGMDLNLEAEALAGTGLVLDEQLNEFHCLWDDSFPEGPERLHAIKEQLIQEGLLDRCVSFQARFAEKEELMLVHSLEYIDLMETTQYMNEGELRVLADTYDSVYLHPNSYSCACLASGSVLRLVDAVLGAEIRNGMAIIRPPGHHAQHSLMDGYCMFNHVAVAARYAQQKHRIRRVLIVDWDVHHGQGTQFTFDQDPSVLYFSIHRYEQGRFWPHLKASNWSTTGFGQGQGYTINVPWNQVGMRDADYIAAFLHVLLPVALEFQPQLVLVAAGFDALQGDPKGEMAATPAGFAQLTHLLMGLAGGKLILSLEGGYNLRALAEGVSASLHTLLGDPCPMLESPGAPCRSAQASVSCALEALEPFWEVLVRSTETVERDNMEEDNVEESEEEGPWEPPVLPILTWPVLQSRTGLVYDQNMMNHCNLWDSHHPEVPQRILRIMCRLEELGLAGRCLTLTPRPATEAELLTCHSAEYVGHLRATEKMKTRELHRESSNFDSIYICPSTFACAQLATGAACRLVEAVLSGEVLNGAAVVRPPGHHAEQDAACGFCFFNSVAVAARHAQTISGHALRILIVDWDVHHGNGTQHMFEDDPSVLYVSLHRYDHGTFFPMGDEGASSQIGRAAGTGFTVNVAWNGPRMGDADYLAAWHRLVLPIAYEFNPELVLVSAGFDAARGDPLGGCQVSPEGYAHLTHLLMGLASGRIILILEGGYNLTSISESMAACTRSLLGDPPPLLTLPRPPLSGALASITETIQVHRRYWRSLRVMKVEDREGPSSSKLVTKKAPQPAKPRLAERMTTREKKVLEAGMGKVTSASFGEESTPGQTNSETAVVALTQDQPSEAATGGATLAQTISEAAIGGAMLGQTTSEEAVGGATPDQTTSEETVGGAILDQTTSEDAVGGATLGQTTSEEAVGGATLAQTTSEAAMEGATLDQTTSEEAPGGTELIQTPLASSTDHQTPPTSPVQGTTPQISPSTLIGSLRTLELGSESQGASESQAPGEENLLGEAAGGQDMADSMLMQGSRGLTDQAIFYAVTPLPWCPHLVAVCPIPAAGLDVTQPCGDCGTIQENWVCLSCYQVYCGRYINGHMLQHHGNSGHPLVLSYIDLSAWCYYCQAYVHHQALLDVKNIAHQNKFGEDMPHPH
# Histone deacetylase 9 = Histone deacetylase 9 (Homo sapiens, UniProt Q9UKV0); assay: Inhibition of human HDAC9
# Chain of Histone deacetylase 9 (Q9UKV0 whole entry): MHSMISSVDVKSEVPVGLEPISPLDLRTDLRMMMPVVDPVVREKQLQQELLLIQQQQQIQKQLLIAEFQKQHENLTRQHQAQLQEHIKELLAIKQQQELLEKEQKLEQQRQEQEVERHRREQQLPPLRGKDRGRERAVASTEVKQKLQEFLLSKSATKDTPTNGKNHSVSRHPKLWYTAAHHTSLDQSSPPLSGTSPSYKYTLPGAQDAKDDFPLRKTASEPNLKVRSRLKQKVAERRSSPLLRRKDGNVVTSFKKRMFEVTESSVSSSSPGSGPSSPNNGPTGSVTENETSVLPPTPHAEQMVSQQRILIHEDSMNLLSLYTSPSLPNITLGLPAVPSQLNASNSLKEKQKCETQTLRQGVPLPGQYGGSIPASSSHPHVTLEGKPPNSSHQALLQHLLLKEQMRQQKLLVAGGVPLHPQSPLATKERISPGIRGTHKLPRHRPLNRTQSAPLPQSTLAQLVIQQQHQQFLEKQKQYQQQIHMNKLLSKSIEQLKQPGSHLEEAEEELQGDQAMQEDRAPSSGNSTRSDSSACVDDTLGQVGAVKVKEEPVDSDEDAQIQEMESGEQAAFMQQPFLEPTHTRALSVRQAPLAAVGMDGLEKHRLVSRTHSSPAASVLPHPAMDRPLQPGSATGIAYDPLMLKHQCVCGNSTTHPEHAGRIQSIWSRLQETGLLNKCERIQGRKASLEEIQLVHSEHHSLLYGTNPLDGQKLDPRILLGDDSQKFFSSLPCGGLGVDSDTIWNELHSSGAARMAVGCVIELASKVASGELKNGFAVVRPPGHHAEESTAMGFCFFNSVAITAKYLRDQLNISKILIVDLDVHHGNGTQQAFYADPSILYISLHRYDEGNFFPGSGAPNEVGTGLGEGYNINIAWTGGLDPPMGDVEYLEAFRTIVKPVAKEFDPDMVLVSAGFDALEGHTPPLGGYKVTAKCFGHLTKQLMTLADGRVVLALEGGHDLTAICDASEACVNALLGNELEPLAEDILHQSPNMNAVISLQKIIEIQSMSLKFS
# Histone deacetylase 11 = target: T3, Histone deacetylase 11 (Homo sapiens, UniProt Q96DB2); assay: Inhibition of human HDAC11
# T3 sequence (Q96DB2 whole entry): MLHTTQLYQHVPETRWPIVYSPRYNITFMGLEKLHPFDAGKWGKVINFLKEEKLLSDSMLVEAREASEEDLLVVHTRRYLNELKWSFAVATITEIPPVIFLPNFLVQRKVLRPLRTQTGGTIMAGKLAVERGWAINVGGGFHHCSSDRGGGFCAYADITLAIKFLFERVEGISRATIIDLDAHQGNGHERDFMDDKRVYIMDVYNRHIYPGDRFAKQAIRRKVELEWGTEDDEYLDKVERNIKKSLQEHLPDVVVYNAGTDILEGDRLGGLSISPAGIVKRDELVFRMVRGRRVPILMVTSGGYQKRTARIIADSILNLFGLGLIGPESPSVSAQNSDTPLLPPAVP
# Histone deacetylase 8 = target: T4, Histone deacetylase 8 (Homo sapiens, UniProt Q9BY41); assay: Inhibition of human HDAC8
# T4 sequence (Q9BY41 whole entry): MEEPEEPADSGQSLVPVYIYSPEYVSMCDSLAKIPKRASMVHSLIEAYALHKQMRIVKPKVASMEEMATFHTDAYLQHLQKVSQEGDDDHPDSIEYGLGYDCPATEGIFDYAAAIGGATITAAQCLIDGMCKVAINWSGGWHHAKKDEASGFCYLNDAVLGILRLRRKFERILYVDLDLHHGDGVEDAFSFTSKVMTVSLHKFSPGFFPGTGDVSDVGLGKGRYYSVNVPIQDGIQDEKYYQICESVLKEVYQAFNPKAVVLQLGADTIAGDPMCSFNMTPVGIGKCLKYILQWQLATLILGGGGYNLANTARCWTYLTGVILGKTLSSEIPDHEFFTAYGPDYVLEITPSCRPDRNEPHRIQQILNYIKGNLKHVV
# Histone deacetylase 2 = Histone deacetylase 2 (Homo sapiens, UniProt Q92769); assay: Inhibition of human HDAC2
# Chain of Histone deacetylase 2 (Q92769 whole entry): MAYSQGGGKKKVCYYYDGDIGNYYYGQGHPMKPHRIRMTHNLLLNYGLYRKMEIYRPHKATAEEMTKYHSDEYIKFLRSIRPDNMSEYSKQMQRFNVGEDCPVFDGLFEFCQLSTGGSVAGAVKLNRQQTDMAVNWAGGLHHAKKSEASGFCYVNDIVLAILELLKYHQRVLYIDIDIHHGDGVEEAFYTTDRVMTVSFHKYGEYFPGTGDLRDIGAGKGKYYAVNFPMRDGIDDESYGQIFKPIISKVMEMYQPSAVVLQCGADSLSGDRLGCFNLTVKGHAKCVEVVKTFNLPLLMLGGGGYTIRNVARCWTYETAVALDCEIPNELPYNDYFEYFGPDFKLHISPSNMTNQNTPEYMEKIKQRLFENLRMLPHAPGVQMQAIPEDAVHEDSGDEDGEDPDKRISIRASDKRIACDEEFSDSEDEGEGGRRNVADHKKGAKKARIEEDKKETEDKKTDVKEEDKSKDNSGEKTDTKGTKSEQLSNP
# Histone deacetylase 3 = Histone deacetylase 3 (Homo sapiens, UniProt O15379); assay: Inhibition of human HDAC3
# Chain of Histone deacetylase 3 (O15379 whole entry): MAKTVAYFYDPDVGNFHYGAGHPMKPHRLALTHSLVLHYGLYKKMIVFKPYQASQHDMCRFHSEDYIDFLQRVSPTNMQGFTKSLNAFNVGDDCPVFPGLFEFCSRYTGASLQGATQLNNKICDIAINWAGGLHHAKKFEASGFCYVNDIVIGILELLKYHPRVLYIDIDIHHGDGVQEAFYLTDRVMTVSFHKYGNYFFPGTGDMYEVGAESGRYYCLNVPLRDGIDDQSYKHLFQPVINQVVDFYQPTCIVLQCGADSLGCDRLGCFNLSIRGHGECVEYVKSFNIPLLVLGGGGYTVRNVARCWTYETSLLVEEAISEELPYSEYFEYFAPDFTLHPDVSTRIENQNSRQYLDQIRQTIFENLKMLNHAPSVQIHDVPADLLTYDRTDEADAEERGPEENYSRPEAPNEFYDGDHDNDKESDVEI
# Histone deacetylase 7 = target: T5, Histone deacetylase 7 (Homo sapiens, UniProt Q8WUI4); assay: Inhibition of human HDAC7
# T5 sequence (Q8WUI4 whole entry): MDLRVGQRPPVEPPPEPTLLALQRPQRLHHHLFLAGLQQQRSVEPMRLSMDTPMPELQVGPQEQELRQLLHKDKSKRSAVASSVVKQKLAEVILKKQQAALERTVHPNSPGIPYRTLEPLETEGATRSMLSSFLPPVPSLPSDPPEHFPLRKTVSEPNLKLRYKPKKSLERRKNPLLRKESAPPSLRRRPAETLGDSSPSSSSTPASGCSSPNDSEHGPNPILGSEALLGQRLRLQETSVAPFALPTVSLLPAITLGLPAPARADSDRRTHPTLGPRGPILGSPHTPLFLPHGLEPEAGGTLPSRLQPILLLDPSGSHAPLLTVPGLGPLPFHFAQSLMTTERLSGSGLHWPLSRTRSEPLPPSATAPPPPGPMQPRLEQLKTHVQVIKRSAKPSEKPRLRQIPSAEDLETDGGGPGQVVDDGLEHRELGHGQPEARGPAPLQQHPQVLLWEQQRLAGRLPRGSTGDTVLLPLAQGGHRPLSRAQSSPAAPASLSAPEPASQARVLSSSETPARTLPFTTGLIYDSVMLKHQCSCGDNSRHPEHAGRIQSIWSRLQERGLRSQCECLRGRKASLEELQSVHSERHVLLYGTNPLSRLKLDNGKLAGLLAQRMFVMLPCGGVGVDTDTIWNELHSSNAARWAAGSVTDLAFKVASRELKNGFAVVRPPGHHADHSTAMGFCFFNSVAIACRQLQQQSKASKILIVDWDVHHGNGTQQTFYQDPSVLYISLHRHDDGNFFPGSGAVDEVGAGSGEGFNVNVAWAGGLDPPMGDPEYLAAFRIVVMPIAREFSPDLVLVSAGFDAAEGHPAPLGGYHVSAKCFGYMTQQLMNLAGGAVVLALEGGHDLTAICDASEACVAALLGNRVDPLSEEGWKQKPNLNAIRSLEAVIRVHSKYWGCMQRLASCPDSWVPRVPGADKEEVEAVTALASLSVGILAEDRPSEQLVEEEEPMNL
Structure (SMILES),IC50 (NB-4) [µM],IC50 (HCT-116) [µM],IC50 (NCI-H460) [µM],IC50 [1] [µM],IC50 (Histone deacetylase 1) [µM],IC50 (Histone deacetylase 4) [µM],IC50 (Histone deacetylase 5) [µM],IC50 [2] [µM],IC50 (Histone deacetylase 9) [µM],IC50 (Histone deacetylase 11) [µM],IC50 (Histone deacetylase 8) [µM],IC50 (Histone deacetylase 2) [µM],IC50 (Histone deacetylase 3) [µM],IC50 (Histone deacetylase 7) [µM]
O=C(/C=C/c1ccc(/C=N/OCc2ccccc2)cc1)NO,0.62,2.8,1.6,–,–,–,–,–,–,–,–,–,–,–
O=C(C#Cc1ccc(/C=N/OCc2ccc([N+](=O)[O-])cc2)cc1)NO,> 20,> 20,> 20,–,–,–,–,–,–,–,–,–,–,–
C=CCO/N=C/c1ccc(/C=C/C(=O)NO)cc1,1.4,3.5,3.2,–,–,–,–,–,–,–,–,–,–,–
O=C(/C=C/c1ccc(/C=N/OCCN2CCOCC2)cc1)NO,1.7,1.8,2.9,7.84,3.06,16.1,7.36,0.303,13.1,3.06,0.235,27.7,4.08,–
O=C(CCc1ccc(/C=N/OCc2ccc([N+](=O)[O-])cc2)cc1)NO,0.95,3.1,7.7,–,–,–,–,–,–,–,–,–,–,–
O=C(/C=C/c1ccc(/C=N/Oc2ccccc2)cc1)NO,2.7,3.7,5.1,–,–,–,–,–,–,–,–,–,–,–
O=C(/C=C/c1ccc(-c2cc(CN3CCOCC3)on2)cc1)NO,–,4,7,6.1,6.26,–,10.8,–,11.2,6.26,0.127,–,3.14,22.3
O=C(/C=C/c1ccc(/C=N/O)cc1)NO,2.9,3.5,6.3,–,–,–,–,–,–,–,–,–,–,–
Nc1ccccc1NC(=O)/C=C/c1ccc(/C=N/OCCN2CCOCC2)cc1,8.9,> 20,> 20,–,–,–,–,–,–,–,–,–,–,–
Nc1ccccc1NC(=O)/C=C/c1ccc(/C=N/OCc2ccc([N+](=O)[O-])cc2)cc1,> 20,> 20,> 20,–,–,–,–,–,–,–,–,–,–,–
O=C(/C=C/c1cccc(/C=N/OCCN2CCOCC2)c1)NO,1.9,4,6.6,–,–,–,–,–,–,–,–,–,–,–
COC(=O)c1ccc(CO/N=C/c2ccc(/C=C/C(=O)NO)cc2)cc1,0.82,1.7,1.7,5.43,1.82,12.9,3.67,0.094,6.43,10.8,0.603,15.8,0.659,–
O=C(/C=C/c1ccc(C2=NOC(CN3CCOCC3)C2)cc1)NO (configuration not stated),–,3,9.9,–,–,–,–,–,–,–,–,–,–,–
O=C(/C=C/c1ccc(/C=N/OCc2c(F)c(F)c(F)c(F)c2F)cc1)NO,0.7,2.4,1.6,7.36,5.48,38.8,7.2,0.661,12,5.48,1.29,11,2.8,–
O=C(/C=C/c1ccc(/C=N/OCc2ccc([N+](=O)[O-])cc2)cc1)NO,0.76,1.2,2.6,1.58,0.79,2.04,1.16,0.124,2.47,0.79,0.07,2.67,0.16,2.3
